The text below walks through data of ChEMBL document CHEMBL1806426, “Simple but powerful: phenanthroline-based small molecules for cellular imaging and cancer screening” (Bioorg Med Chem Lett, 2011).

Series [1] is described as follows: Drug uptake in human OE21 endoplasmic reticulum assessed as fluorescence intensity at 18 uM after 20 mins to 2 hrs by confocal microscopy. It counts as ADME.
A short description of series [2]: Drug uptake in human OE21 endoplasmic reticulum at 27 uM after 20 mins by confocal microscopy. It counts as ADME.
The nature of series [3]: Drug uptake in human HET-1A endoplasmic reticulum after 20 mins to 2 hrs by confocal microscopy. It counts as ADME.
The nature of series [4]: Cytotoxicity against human HET-1A cells assessed as cell survival after 24 hrs by MTT assay. It is filed as cell-based.
A short description of series [5]: Ratio of IC50 for cytotoxicity against human HET-1A cells to IC50 for cytotoxicity against human OE21 cells. It is filed as toxicity, cell-based. The settings on record: HET-1A cells and OE21 cells, read-out: Ratio IC50.
A short description of series [6]: Cytotoxicity against human OE21 cells assessed as cell survival after 24 hrs by MTT assay. The settings on record: OE21, 24 h. It is filed as functional, cell-based. A general note: Tetrazolium dyes change colour on reduction, which living cells bring about.
Series [7] is described as follows: Solubility of the compound in phosphate buffer solution at pH7.4. The settings on record: pH 7.4. It is filed as physicochemical.
Series [8] can be described thus: Drug uptake in human OE21 endoplasmic reticulum at 9 uM after 5 mins by confocal microscopy. It is filed as ADME.
Series [9] in a line: Drug uptake in human HET-1A endoplasmic reticulum after 5 mins by confocal microscopy. It is filed as ADME.

Turning to `Brc1ccc(-c2nc3c4cccnc4c4ncccc4c3[nH]2)cc1`, the Drug uptake entry in series [1], in [2], in series [3] and in series [8] was “Active” each time. Further, the IC50 in series [4] was 3.15 µM; in [6], 770 nM. Moreover, the selectivity ratio in series [5] amounted to 4. Besides, the solubility result in series [7] is recorded as “soluble”.
Take `C[Si](C)(C)C#Cc1ccc(-c2nc3c4cccnc4c4ncccc4c3[nH]2)cc1`: the Drug uptake entry in series [1], in series [9], in series [2], in [3] and in series [8] was “Active” throughout. Besides, the IC50 in series [4] is 3.02 µM; in [6], 440 nM. The selectivity ratio in [5] was 7. Also, the solubility entry in [7] was “soluble”.

As a reminder, the IC50 is the concentration needed to halve the response being measured.
